Molecular target: GTPase KRas [G12C,C51S,C80L,C118S] (Homo sapiens, UniProt P01116, C118S/C51S/C80L/G12C)
Test: AlphaScreen Binding Assay
Source text: […]

Sequence of GTPase KRas [G12C,C51S,C80L,C118S] (P01116 whole entry G12C/C51S/C80L/C118S, looked up): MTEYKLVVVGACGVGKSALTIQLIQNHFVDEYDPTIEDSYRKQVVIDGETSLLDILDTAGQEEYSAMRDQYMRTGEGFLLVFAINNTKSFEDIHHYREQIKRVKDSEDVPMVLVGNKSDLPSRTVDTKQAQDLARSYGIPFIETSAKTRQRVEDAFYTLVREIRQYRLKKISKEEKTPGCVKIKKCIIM

`C[C@H](Oc1cc(-n2nccc2-c2ccncc2)nc(-c2noc3c2CCC[C@@]32CCCc3sc(N)c(C#N)c32)n1)[C@@H]1CCCN1C` [US20240174690, Example II-131] was tested. Which IC50 did it give?
The IC50 was 4 nM.
